Data: US8188089B2, “Tylophorine analogs as antitumor agents” (The University of North Carolina at Chapel Hill, priority 2006, dated 2012)
Counter-ions that a name gives are not always drawn.

How the values were obtained:
[1] = tested on: KB-VIN (multidug-resistant KB subline); assay: Cell growth inhibition assay (SRB), Example 2, KB-VIN; assay type: cell-based, human; settings: Table 6, 72-h continuous treatment
Description: (§1) Drug-Resistance Study. Twelve active compounds [including four hydrochloride salts (18b, 22b, 24b, 32b) of corresponding active free bases (18a, 22a, 24a, 32a)] were further screened against an extended panel of human tumor cell lines including DU-145 (prostate), ZR-751 (breast), KB (nasopharyngeal), and KB-VIN (multidug-resistant KB subline) in order to explore their antitumor spectra and drug-resistance profiles. Four compounds were used as reference compounds. Antofine is a positional isomer of tylophorine isolated from Asclepiadaceae by Dr. T. S. Wu in Taiwan (Wu, P. L. et al., Heterocycles 2002; 57:2401). […] Doxorubicin (Adriamycin), vincristine, and etoposide (VP-16, Vepesid®) are widely used anticancer agents for treating a range of solid tumors.
(§2) Cell Growth Inhibition Assay. The sulforhodamine B assay was used according to the procedures developed and validated at NCI. The in vitro anticancer activities are expressed as ED50 values, which is the test compound concentration (μM) that reduced the cell number by 50% after 72-h of continuous treatment. The values were interpolated from dose-response data. Each test was performed in triplicate with variation less than 5%. The ED50 values determined in each of independent tests varied less than 10%. Compound stock solutions were prepared in DMSO with the final solvent concentration ≦1% DMSO (v/v), a concentration without effect on cell replication. The cells were cultured at 37° C. in RPMI-1640 supplemented with 25 mM N-2-hydroxyethylpiperazine-N′-2-ethanesulfonic acid (HEPES), […], 10% (v/v) fetal bovine serum, and 100 μg/mL kanamycin in a humidified atmosphere containing 5% CO2.

[2] = tested on: human A549 lung cancer cell line; assay: Cell growth inhibition assay (SRB), Example 2, A549; assay type: cell-based
Description: Cell Growth Inhibition Assay. The sulforhodamine B assay was used according to the procedures developed and validated at NCI. […] The values were interpolated from dose-response data.

[3] = tested on: ZR-751 (breast); assay: Cell growth inhibition assay (SRB), Example 2, ZR-751; assay type: cell-based, human; settings: Table 6, 72-h continuous treatment
Description: as §1, §2

[4] = tested on: DU-145 (prostate); assay: Cell growth inhibition assay (SRB), Example 2, DU-145; assay type: cell-based, human; settings: Table 6, 72-h continuous treatment
Description: as §1, §2

[5] = tested on: KB (nasopharyngeal); assay: Cell growth inhibition assay (SRB), Example 2, KB; assay type: cell-based, human; settings: Table 6, 72-h continuous treatment
Description: as §1, §2

[6] = tested on: tumor cell line panel (A549, KB, DU-145, ZR-751, KB-VIN); assay: Cytotoxic activity against the whole tumor cell line panel; assay type: cell-based, human; settings: all cell lines of the panel; read-out: ED50 values against the tumor cell line panel
Description: as §1
Cell Growth Inhibition Assay. The sulforhodamine B assay was used according to the procedures developed and validated at NCI. The in vitro anticancer activities are expressed as ED50 values, which is the test compound concentration (μM) that reduced the cell number by 50% after 72-h of continuous treatment. The values were interpolated from dose-response data. Each test was performed in triplicate with variation less than 5%. The ED50 values determined in each of independent tests varied less than 10%. […]

[7] = tested on: human A549 lung cancer cell line; assay: Cell growth inhibition assay (SRB), Example 1; assay type: cell-based; settings: Homo sapiens; table footnotes of Example 1; A549
Description: Results and discussion. […] Etoposide (VP-16) was used as the reference compound.
Cell Growth Inhibition Assay. The human A549 lung cancer cell line was used for the cytotoxicity screening of PBT derivatives using the cell-based sulforhodamine B (SRB) microtitre plate assay. […] Duration of compound exposure was 3 days.

[8] = Table 6, 72-h continuous treatment, hydrochloride, read-out: EC50 (μM) A549
[9] = Homo sapiens, A549, 72 h, Table 4, ED50, 72-h continuous treatment, NA = not active, read-out: A549 (μM), in vitro anticancer activity against A549 lung cancer cells
[10] = Homo sapiens, A549, 72 h, Table 6, 72-h continuous treatment, read-out: EC50 (μM) A549

Row | Structure (SMILES) | EC50 ([1]; hydrochloride) [µM] | EC50 [2, 8] [µM] | melting point [°C] | EC50 ([3]; hydrochloride) [µM] | EC50 ([4]; hydrochloride) [µM] | EC50 ([5]; hydrochloride) [µM] | EC50 [6] [nM] | EC50 [1] [µM] | EC50 [2, 9] [µM] | EC50 [2, 10] [µM] | EC50 ([3]; Homo sapiens, ZR-75-1, 72 h) [µM] | EC50 ([4]; Homo sapiens, DU-145, 72 h) [µM] | EC50 [5] [µM] | EC50 [7] [nM] | EC50 ([1]; Homo sapiens, KBVIN, 72 h) [µM] | EC50 ([5]; Homo sapiens, 72 h) [µM]
1 | COc1ccc2c(CNCCCCCCO)cc3cc4c(cc3c2c1)OCO4.Cl [Compound 22b, N-(2,3-Methylenedioxy-6-methoxy-phenanthr-9-ylmethyl)-6-aminohexanol hydrochloride] | 0.16 | 0.13 | 187 to 188 | 0.08 | 0.07 | 0.23 |  |  |  |  |  |  |  |  |  | 
2 | COc1ccc2c(CN3CCC(CO)CC3)cc3cc4c(cc3c2c1)OCO4 [Compound 24b, N-(2,3-Methylenedioxy-6-methoxy-phenanthr-9-ylmethyl)-L-4-piperidinemethanol hydrochloride] | 0.04 | 0.07 |  | 0.04 | 0.05 | 0.07 | < 100 |  |  |  |  |  |  |  |  | 
3 | COc1ccc2c(CN3CCC(CCO)CC3)cc3cc4c(cc3c2c1)OCO4 [Compound 32a, N-(2,3-Methylenedioxy-6-methoxy-phenanthr-9-ylmethyl)-4-piperidineethanol] |  |  | 148 to 149 |  |  |  |  | 0.5 | 0.15 | 0.15 | 0.03 | 0.15 | 0.42 |  |  | 
4 | COc1ccc2c(CN3CCC(CCO)CC3)cc3cc4c(cc3c2c1)OCO4.Cl [Compound 32b, N-(2,3-Methylenedioxy-6-methoxy-phenanthr-9-ylmethyl)-4-piperidineethanol hydrochloride] | 0.2 | 0.09 | 153 to 155 | 0.02 | 0.1 | 0.2 |  |  |  |  |  |  |  |  |  | 
5 | COc1cc([C@@H]2c3cc4c(cc3[C@@H](O[C@@H]3O[C@@H]5CO[C@@H](C)O[C@H]5[C@H](O)[C@H]3O)[C@H]3COC(=O)[C@H]23)OCO4)cc(OC)c1O [Etoposide (VP-16), Etoposide, reference compound] |  |  |  |  |  |  |  |  | 1.4 | 1.4 | 3.1 | 2.4 |  | 1400 | > 10 | 4.8
